# Tests used:
# [1] = test system: MDA-MB-231; assay: drug sensitivity score (DSS), cytotoxicity CellTox Green; higher = more cytotoxic; extreme values may be limits of the assay; details: 72 h
# [2] = test system: MDA-MB-231; assay: drug sensitivity score (DSS), cell viability CellTiter-Glo; higher = more sensitive; extreme values may be limits of the assay; details: 72 h
# 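Wherever drug sensitivity score (DSS), cytotoxicity CellTox Green is given: DSS summarises each dose–response curve by combining IC50, EC50, maximal inhibition and efficacy across drug concentrations.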
Structure (SMILES),drug sensitivity score ([1]; shRNA: shPPFIA1_1) [DSS],drug sensitivity score ([1]; shRNA: shScramble) [DSS],drug sensitivity score ([2]; shRNA: shPPFIA1_1) [DSS],drug sensitivity score ([2]; shRNA: shScramble) [DSS]
CN(C)C(=O)c1cc2cnc(Nc3ccc(N4CCNCC4)cn3)nc2n1C1CCCC1 [Ribociclib],0,0,0,0
Cc1csc(-c2nnc(Nc3ccc(Oc4ncccc4-c4ccnc(N)n4)cc3)c3ccccc23)c1 [AMG-900],0,0,0,0.3
CCn1c(C(=O)N(C2CC2)C2CC2)cc2c3c(ncn3C)c(Nc3cc(C)n(C)n3)nc21,0,0,0,0
C[C@@H](Oc1ccc2[nH]nc(/C=C/c3cnn(CCO)c3)c2c1)c1c(Cl)cncc1Cl,0,0,0,4.8
Cc1cc(-c2nc(-c3ccc(OC(F)(F)F)cc3)no2)nn1Cc1ccnc(N2CCN(C3CC3)CC2)c1 [BAY 87-2243],0,0,14.7,13
Nc1nc(F)nc2c1ncn2[C@@H]1O[C@H](CO)[C@@H](O)[C@@H]1O [Fludarabine],0,0,0.4,2.5
O=C(O)c1ccc(O)c2ncccc12 [IOX-1],0,0,0,0
O=C(/C=C\n1cnc(-c2cc(C(F)(F)F)cc(C(F)(F)F)c2)n1)NNc1ccccn1 [Verdinexor],4.4,4.2,0,5.7
Cc1cc(Nc2cc(N3CCN(C)CC3)nc(/C=C/c3ccccc3)n2)n[nH]1 [ENMD-2076],2,0.9,3.8,8.8
CNC(=O)c1cc(Oc2ccc(NC(=O)Nc3ccc(Cl)c(C(F)(F)F)c3)cc2)ccn1 [Sorafenib],0,0,0,0
Nc1ccn([C@@H]2O[C@H](CO)[C@@H](O)C2(F)F)c(=O)n1 [Gemcitabine],0.3,0,1.3,8.6
Cc1sc2c(c1C)C(c1ccc(Cl)cc1)=N[C@@H](CC(=O)Nc1ccc(O)cc1)c1nnc(C)n1-2 [OTX015],0,0,0,10.2
O=NN(CCCl)C(=O)NCCCl [Carmustine],0,0,0,0
O=C(NOCC1CC1)c1ccc(F)c(F)c1Nc1ccc(I)cc1Cl,6.2,8.5,1.8,7.7
O=C(c1ccc(C(=O)N2CCC(N3CCCC3)CC2)c(Nc2ccccc2)c1)N1CCC(N2CCCC2)CC1 [UNC1215],0,0,0.4,0.3
CN[C@@H]1C[C@H]2O[C@@](C)([C@@H]1OC)n1c3ccccc3c3c4c(c5c6ccccc6n2c5c31)C(=O)N[C@H]4O [UCN-01],16.6,12.2,17,21.4
COc1cc(Br)c(Nc2nc(-c3c(C)nc4ncccn34)cs2)c(Br)c1 [PTC-209],0,0,0,7.5
CN1CC[C@@H](NC(=O)Nc2ccc(C#N)cc2)C[C@@H]1c1nc2ccccc2[nH]1 [Glasdegib],0,0,0,0
O=P1(N(CCCl)CCCl)NCCCO1 (centres undefined) [Cyclophosphamide],0,0,0,0
Cc1cccc(CC(=O)N2CCc3c2ccc(-c2cn(C)c4ncnc(N)c24)c3F)n1,15,0,0,0.3
S=C(NCc1ccc2c(c1)OCO2)N1CCN(c2ncnc3c2oc2ccccc23)CC1 [Amuvatinib],5.5,0,0.6,1.8
C[C@@H]1C=C2C(=O)O[C@@H]3CC[C@H](C1)[C@]23O [Galiellalactone],2.9,1.8,0.2,2.1

Structure (SMILES),drug sensitivity score ([1]; shRNA: shPPFIA1_1) [DSS],drug sensitivity score ([1]; shRNA: shScramble) [DSS],drug sensitivity score ([2]; shRNA: shPPFIA1_1) [DSS],drug sensitivity score ([2]; shRNA: shScramble) [DSS]
CC(C)Oc1ccc(C(=O)N[C@H](CNC(=O)CN(C)C)Cc2ccc(-c3cn4cccc([C@H](C)O)c4n3)cc2)cc1Cl,10.3,6.2,3.5,13.6
COc1cc(NS(C)(=O)=O)ccc1Nc1c2ccccc2nc2ccccc12 [Amsacrine],2,7.4,4.8,8.6
Cn1cc(C[C@@H](N)C(=O)O)c2ccccc21 [1-methyl-D-tryptophan],0,0,0,0.9
CN1CCc2c(c3ccccc3n2Cc2ccc(C(=O)NO)cc2)C1 [Tubastatin A],0.1,0,0,1
CC(C)NC(=O)COc1cccc(-c2nc(Nc3ccc4[nH]ncc4c3)c3ccccc3n2)c1 [SLx-2119],0,0,0,0
O=C(Nc1ccc(-c2ccnc(Nc3ccc(N4CCOCC4)cc3)n2)cc1)C1CCCN1 (centres undefined) [XL019],0,0,0,0.6
CC(=O)c1c(C)c2cnc(Nc3ccc(N4CCNCC4)cn3)nc2n(C2CCCC2)c1=O [Palbociclib],0,0,0,2.4
C[C@@H]1C[C@H]2[C@@H]3CCC4=CC(=O)C=C[C@]4(C)[C@@]3(F)[C@@H](O)C[C@]2(C)[C@@]1(O)C(=O)CO [Dexamethasone],0,0,0,0
Cc1cc(-c2ncc(-c3cccnc3)cc2/C=C/c2ccccc2)cnc1-c1cccnc1 [Pyridoclax],0.3,0,1.9,5.9
C1=N/C2=N/c3ccc(OCCN4CCCC4)c(c3)COC/C=C/COCc3cccc(c3)C(=C1)N2 [Pacritinib],1.6,0.6,2.4,6.2
C[C@@H](Oc1cc(-n2cnc3ccc(CN4CCN(C)CC4)cc32)sc1C(N)=O)c1ccccc1C(F)(F)F,10,7,1.5,5.2
Oc1ncnc2[nH]ncc12 [Allopurinol],0,0,0,0
CC(C)[C@H]1C(=O)N[C@@H](CCCNC(=N)N)C(=O)NCC(=O)N[C@@H](CC(=O)O)C(=O)N[C@H](Cc2ccccc2)C(=O)N1C [Cilengitide],0,0,0,0
CN(C)C1CCN(C(=O)c2ccc(NC(=O)Nc3ccc(-c4nc(N5CCOCC5)nc(N5CCOCC5)n4)cc3)cc2)CC1 [Gedatolisib],0,0,7.2,20.8
CC1CCC(n2c3cnccc3c3cnc(Nc4ccc5c(n4)CCN(C(=O)CO)C5)nc32)CC1 (centres undefined) [AMG-925],0,0,0,0
CC[C@]1(O)C[C@H]2CN(CCc3c([nH]c4ccccc34)[C@@](C(=O)OC)(c3cc4c(cc3OC)N(C=O)[C@H]3[C@@](O)(C(=O)OC)[C@H](OC(C)=O)[C@]5(CC)C=CCN6CC[C@]43[C@@H]65)C2)C1 [Vincristine],4.9,6,0,8.1
CN(c1ccccc1CNc1nc(Nc2ccc3c(c2)CC(=O)N3)ncc1C(F)(F)F)S(C)(=O)=O,4.1,4,2.3,5.3
Cc1ccccc1C(C(=O)NC1CCCCC1)N(C(=O)Cn1ccnc1C)c1cccc(F)c1 (centres undefined) [AGI-5198],0,0,0,0
CNC(=O)c1cc(COc2nnc(Nc3ccc(Cl)cc3)c3ccoc23)ccn1 [Telatinib],0,0,0,0
O=C(Nc1cccc(Cl)c1)Nc1ncc(CCNc2ncnc3ccsc23)s1 [SNS-314],0,0,0,0
CNC(=O)c1ccc(-c2cnc3ncc(Cc4ccc5ncccc5c4)n3n2)cc1F [NVP-INC280],0,0,4.5,10.5
COc1cc(O)c2c(c1)/C=C/C[C@H](O)[C@H](O)C(=O)/C=C\C[C@H](C)OC2=O [(5Z)-7-Oxozeaenol],0.4,2.7,0,2.1

Structure (SMILES),drug sensitivity score ([1]; shRNA: shPPFIA1_1) [DSS],drug sensitivity score ([1]; shRNA: shScramble) [DSS],drug sensitivity score ([2]; shRNA: shPPFIA1_1) [DSS],drug sensitivity score ([2]; shRNA: shScramble) [DSS]
CN(C)Cc1ccc(S(=O)(=O)n2ccc(/C=C/C(=O)NO)c2)cc1 [Resminostat],7.5,4.4,2.5,7.1
O=C(O)c1ccc2c(c1)nc(Nc1cccc(Cl)c1)c1ccncc12 [Silmitasertib],0,0,0,3.5
CC1(COc2ccc3c(c2)ncn3-c2ccc3cccc(N4CCC(N)CC4)c3n2)COC1 [Crenolanib],7.2,4.6,5.3,9.4
N#Cc1ccc2[nH]c(O)c(-c3ccc(CN4CCOCC4)cn3)c2c1 [AZD-1080],0,0,0,0
O=C1c2c(O)ccc(O)c2C(=O)c2c(NCCNCCO)ccc(NCCNCCO)c21 [Mitoxantrone],0,0,0,3.2
CS(=O)(=O)c1ccc(C2=C(c3ccccc3)C(=O)OC2)cc1 [Rofecoxib],0,0,0,0
C=CCc1cccc(/C=N/NC(=O)CN2CCN(Cc3ccccc3)CC2)c1O [PAC-1],0,0,2.7,3.8
FC(F)c1nc2ccccc2n1-c1nc(N2CCOCC2)nc(N2CCOCC2)n1 [ZSTK474],0,0,0.2,6.1
Cc1ccc(NC(=O)c2ccc(CN3CCN(C)CC3)cc2)cc1Nc1nc(-c2cccnc2)cs1 [Masitinib],0.2,0.1,0.2,2.9
CC(C)c1c(C(=O)Nc2ccccc2)c(-c2ccccc2)c(-c2ccc(F)cc2)n1CC[C@@H](O)C[C@@H](O)CC(=O)O [Atorvastatin],2,0.6,2.5,7.3
COc1ccc(-c2cc3c(C)nc(N)nc3n([C@H]3CC[C@H](OCCO)CC3)c2=O)cn1,1.1,2.4,0,6.2
CC(=O)OC[C@H]1O[C@@H]([S-])[C@H](OC(C)=O)[C@@H](OC(C)=O)[C@@H]1OC(C)=O.CCP(CC)CC.[Au+] [Auranofin],0,0.4,3.2,4.2
COC(=O)c1ccc2c(c1)NC(=O)/C2=C(\Nc1ccc(N(C)C(=O)CN2CCN(C)CC2)cc1)c1ccccc1 [Nintedanib],1.1,6.7,0,8.1
O=C(NC1CCNCC1)c1n[nH]cc1NC(=O)c1c(Cl)cccc1Cl [AT7519],8.6,5.3,5.6,12.7
CNC(=O)[C@@H](NC(=O)[C@H](CC(C)C)[C@H](O)C(=O)NO)C(C)(C)C [Marimastat],0,0,0.2,0
Cc1[nH]c2ccccc2c1CCNCc1ccc(/C=C/C(=O)NO)cc1 [Panobinostat],11.6,11.4,10.9,14
CC(C)(C#N)c1cc(Cn2cncn2)cc(C(C)(C)C#N)c1 [Anastrozole],0,0,0,0
CNc1nc(Nc2cn(C(C)(C)C#N)nc2C)ncc1C(F)(F)F [GNE-0877],0,0,0,0
C=CCN(/C=C1/C(=O)O[C@H](COC)[C@@]2(C)C1=C(O)C(=O)C1=C2[C@H](OC(C)=O)C[C@]2(C)C(=O)CC[C@@H]12)CC=C [Sonolisib],0,0,0,0
CNNCc1ccc(C(=O)NC(C)C)cc1 [Procarbazine],0,0,0,0
Nc1ccccc1NC(=O)c1ccc(CNC(=O)OCc2cccnc2)cc1 [Entinostat],3.9,0.2,0.3,4.5
C[C@]12C=CC(=O)C=C1CC[C@@H]1[C@@H]2C(=O)C[C@@]2(C)[C@H]1CC[C@]2(O)C(=O)CO [Prednisone],0,0,0,0

# Source: the supplement of paper PMC10920090
